How the values were obtained:
[1] = test system: NCI-H2122 human non-small cell lung cancer xenografts; experiment: Anti-tumor activity in mice bearing NCI-H2122 tumor xenografts; format: in vivo; settings: for Response Rate % (Tumor Regression >−30%): NCI-H2122-xenografted mice, doses per Table D
Method: Next, a similar set of experiments was performed in mice bearing human NCI-H2122 tumor xenografts. NCI-H2122 is a human NSCLC […] cancer cell line that harbors KRAS^G12C and STK11 null (loss of function) mutations.

[2] = test system: UMUC3 human bladder cancer xenografts; experiment: Anti-tumor activity in mice bearing UMUC3 tumor xenografts
Source text: UMUC3 is a human transitional cell carcinoma (bladder cancer) cell line harboring KRAS^G12C and PTEN null mutations. PTEN is a negative regulator or mTOR activity (UMUC3 mutation profile: KRAS^G12C, PTEN^null, TP53^F113C, ATM^Q2800fs, CDKN2A^null, UGT2B17^null.)
Briefly, female athymic mice were implanted with NCI-H2122 cells in their right flanks. When tumor volume reached approximately 100-150 mm^3, animals were randomly divided into nine groups (n=6/group), and administered with saline (control), a single agent drug, or a drug combination shown in Table F below according to the administration routes, dosages and administration frequencies shown in Table F below.

[3] = test system: NCI-H2030 human non-small cell lung cancer xenografts; experiment: Anti-tumor activity in mice bearing NCI-H2030 tumor xenografts; format: in vivo; settings: for Response Rate % (Tumor Regression >−30%): NCI-H2030-xenografted mice, doses per Table A1; for tumor growth inhibition (TGI): NCI-H2030 xenografts, female athymic mice, n=3/group, doses and routes per Table A1
Source text: (NCI-H2030 mutation profile: KRAS^G12C, STK11^E317*, TP53^G262V.) The KRAS G12C mutation, which is common in NSCLC, leads to constitutive activation of the tumor growth-promoting RAS/MAPK signaling pathway. STK11 is a negative regulator of mTOR signaling. The mTOR pathway is often activated in patients with KRAS mutation and contributes to adaptive resistance to KRAS inhibitors.
Female athymic mice were implanted with human NCI-H2030 NSCLC cells in both flanks.

| SMILES | Response Rate % (Tumor Regression >−30%) [1] | tumor growth inhibition (TGI) ([1]; NCI-H2122 xenografts, female athymic mice, n=5/group, doses and routes per Table D) | mice tumor-free during the study ([2]; UMUC3-xenografted mice, n=6/group) | mice surviving to the end of the study (Day 42) ([2]; UMUC3-xenografted mice, n=6/group, doses per Table F) | Response Rate % (Tumor Regression >−30%) ([2]; UMUC3-xenografted mice, doses per Table F) | tumor growth inhibition (TGI) ([2]; UMUC3 xenografts, female athymic mice, n=6/group, doses and routes per Table F) | Response Rate % (Tumor Regression >−30%) [3] | tumor growth inhibition (TGI) [3] |
| --- | --- | --- | --- | --- | --- | --- | --- | --- |
| C=CC(=O)N1CCN(c2nc(=O)n(-c3c(C)ccnc3C(C)C)c3nc(-c4c(O)cccc4F)c(F)cc23)[C@@H](C)C1 (atropisomer, axis not shown; (M)) [sotorasib, 6-Fluoro-7-(2-fluoro-6-hydroxyphenyl)-(1M)-1-[4-methyl-2-(propan-2-yl)pyridin-3-yl]-4-[(2S)-2-methyl-4-(prop-2-enoyl)piperazin-1-yl]pyrido[2,3-d]pyrimidin-2(1H)-one] | 0% | 79% | 0/6 | 0/6 | 0% | 100% | 0% | 20% |
| CO[C@H]1C[C@@H]2CC[C@@H](C)[C@@](O)(O2)C(=O)C(=O)N2CCCC[C@H]2C(=O)O[C@H]([C@H](C)C[C@@H]2CC[C@@H](OCCO)[C@H](OC)C2)CC(=O)[C@H](C)/C=C(\C)[C@@H](O)[C@@H](OC)C(=O)[C@H](C)C[C@H](C)/C=C/C=C/C=C/1C [everolimus] | 10% | – | – | – | – | – | 0% | 22% |

From patent publication US20260137665A1, “COMBINATION THERAPIES FOR THE TREATMENT OF CANCER” (AADI Bioscience, Inc., priority 2022, published 2026)
